Laboratory results taken from patent US20240287138A1, “CYCLIC PEPTIDES FOR INHIBITING TNF RECEPTOR 1 ACTIVITY” (Merck Sharp & Dohme LLC, priority 2023, published 2024).
Numbered stars: 1 amine (or outer) side, 2 acyl side, 3 side chain; on linkers, the order of the positions; unused ones are H or OH. Bridge positions count the residues as written; N and C are the ends. Square brackets hold non-standard residues; d marks the D form. Peptide text beside a SMILES is read from it. Trp(βS-Me,7-OMe) = COc1cccc2c([C@H](C)[C@H](N)C(=O)O)c[nH]c12; Phe(3R-OH) = O=C([C@@H](N[*:1])[C@H](O[*:3])c1ccccc1)[*:2]; Achc(cis-1,4) = O=C([C@H]1CC[C@@H](N[*:1])CC1)[*:2]; Trp(7-Cl) = N[C@@H](Cc1c[nH]c2c(Cl)cccc12)C(=O)O; X15 = C[C@H](c1ccc(O)cc1)[C@H](N[*:1])C(=O)[*:2]; Phe(4-CONH2) = NC(=O)c1ccc(C[C@H](N)C(=O)O)cc1; Phe(4-COOH) = N[C@@H](Cc1ccc(C(=O)O)cc1)C(=O)O; Trp(7-aza) = N[C@@H](Cc1c[nH]c2ncccc12)C(=O)O; Phe(4-CH2NH2) = NCc1ccc(C[C@H](N)C(=O)O)cc1; Ala(4-thiazolyl) = N[C@@H](Cc1cscn1)C(=O)O; Pip(5R-OH) = O=C(O)[C@@H]1CC[C@@H](O)CN1; X4 = O=C([C@H]1C=C[C@@H](N[*:1])C1)[*:2]; X1 = O=C([C@@H]1CC[C@H](N[*:1])C1)[*:2]; d(cisHyp) = O=C(O)[C@H]1C[C@@H](O)CN1; Pip(4-aza) = O=C(O)[C@@H]1CNCCN1; hPhe = N[C@@H](CCc1ccccc1)C(=O)O; 4Pal = N[C@@H](Cc1ccncc1)C(=O)O; NMeE = CN[C@@H](CCC(=O)O)C(=O)O; dHyp = O=C(O)[C@H]1C[C@H](O)CN1; Cit = NC(=O)NCCC[C@H](N)C(=O)O; αMeS = C[C@](N)(CO)C(=O)O; NMeA = CN[C@@H](C)C(=O)O; Nle = CCCC[C@H](N)C(=O)O; Sar = CNCC(=O)O

Experiments:
[1] = molecular target: T1, human soluble TNFR1 (sTNFR1) (Homo sapiens, UniProt P19438); assay: Human sTNFR1-peptide displacement assay (LanthaScreen Eu TR-FRET binding assay)
T1 construct: made in house; host or cells: Sf21 (baculovirus)
T1 sequence (P19438 with tags, fused parts or gaps): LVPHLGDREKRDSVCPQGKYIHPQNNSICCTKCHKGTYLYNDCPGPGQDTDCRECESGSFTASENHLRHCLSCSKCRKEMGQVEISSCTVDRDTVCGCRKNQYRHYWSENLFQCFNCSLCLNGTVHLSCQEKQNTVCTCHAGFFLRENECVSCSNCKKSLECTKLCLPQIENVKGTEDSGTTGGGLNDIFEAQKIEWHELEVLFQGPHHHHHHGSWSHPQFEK
Outline: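 Readout is the 665/615 nm TR-FRET ratio (Eu anti-His donor, streptavidin-Alexa647 acceptor), normalized to DMSO and saturating displacer, fit by Morrison-based five-parameter logistic for Kd^app. His-tagged sTNFR1 (1-211) prebound to 100 nM biotinylated peptide SEQ ID NO.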

human TNFR2 ECD protein = molecular target: T2, human TNFR2 ECD protein (Homo sapiens, UniProt P20333); assay: SPR off-target binding (selectivity) to human TNFR2 ECD
T2 construct: HRV 3C protease cleavage site (C); 6His (C, cleaved yes); made in house; host or cells: Sf21 insect cells (baculovirus), secreted
T2 sequence (P20333 23-257): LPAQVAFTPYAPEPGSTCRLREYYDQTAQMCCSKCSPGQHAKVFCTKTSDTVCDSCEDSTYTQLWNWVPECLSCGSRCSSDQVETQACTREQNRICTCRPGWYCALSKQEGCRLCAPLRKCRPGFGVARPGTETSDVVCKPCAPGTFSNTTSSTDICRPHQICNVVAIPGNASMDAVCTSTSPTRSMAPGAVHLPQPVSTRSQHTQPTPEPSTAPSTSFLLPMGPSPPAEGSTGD
Outline: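 Insect-cell human receptor ECDs, enzymatically biotinylated, immobilized via streptavidin capture chip. Peptide binding and dissociation measured in RU in pH 7.4 HEPES buffer containing 2% DMSO; chip regenerated per analyte. Rate constants give affinity.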

Row | Structure (SMILES) | Kd [1] | Kd (human TNFR2 ECD protein) | IC50 [1]
1 | CCCC[C@@H]1NC(=O)[C@@H]2CC[C@@H](C2)NC(=O)[C@H]([C@@H](C)c2c[nH]c3c(OC)cccc23)NC(=O)CN(C)C(=O)[C@H](Cc2ccc(OC)cc2)NC(=O)[C@H](Cc2ccc(C(=O)O)cc2)NC(=O)[C@](C)(CO)NC(=O)[C@H](Cc2c[nH]c3c(Cl)cccc23)NC(=O)[C@H](Cc2ccc(C(N)=O)cc2)NC(=O)[C@H](CCC(N)=O)NC(=O)[C@H](CCC(=O)O)N(C)C(=O)[C@H](Cc2c[nH]c3ccccc23)NC(=O)[C@@H]2CNCCN2C(=O)[C@H](Cc2ccncc2)NC1=O [SEQ ID NO. 240] (cyclo([4Pal][Pip(4-aza)]W[NMeE]Q[Phe(4-CONH2)][Trp(7-Cl)][αMeS][Phe(4-COOH)]Y(Me)[Sar][Trp(βS-Me,7-OMe)][X1][Nle])) | 0.23 nM | > 1000 nM | 
2 | CN1CC(=O)N[C@@H](Cc2c[nH]c3ccccc23)C(=O)N[C@H](C(N)=O)CSCC(=O)N[C@@H](CCCCN)C(=O)N[C@@H](Cc2ccc(O)cc2)C(=O)N[C@@H](CO)C(=O)N[C@@H](Cc2c[nH]c3ccccc23)C(=O)N2CCC[C@@H]2C(=O)N[C@@H](CCC(N)=O)C(=O)N[C@@H](Cc2ccncc2)C(=O)N[C@@H](Cc2c[nH]c3ccccc23)C(=O)N[C@@](C)(CO)C(=O)N[C@@H](Cc2ccc(C(=O)O)cc2)C(=O)N[C@@H](Cc2ccc(O)cc2)C1=O [SEQ ID NO. 242] ({CH2CO}-KYSW[dP]Q[4Pal]W[αMeS][Phe(4-COOH)]Y[Sar]WC-NH2; thioether N-14) |  | > 1000 nM | 1.21 nM
3 | CCCC[C@@H]1NC(=O)CSC[C@@H](C(N)=O)NC(=O)[C@H]([C@@H](C)c2c[nH]c3c(OC)cccc23)NC(=O)CN(C)C(=O)[C@H](Cc2ccc(O)cc2)NC(=O)[C@H](Cc2ccc(C(=O)O)cc2)NC(=O)[C@](C)(CO)NC(=O)[C@H](Cc2c[nH]c3c(Cl)cccc23)NC(=O)[C@H](Cc2ccncc2)NC(=O)[C@H](CC(N)=O)NC(=O)[C@H](CCC(=O)O)N(C)C(=O)[C@H](Cc2c[nH]c3ncccc23)NC(=O)[C@H](CO)NC(=O)[C@H]([C@H](C)c2ccc(O)cc2)NC1=O [SEQ ID NO. 243] ({CH2CO}-[Nle][X15]S[Trp(7-aza)][NMeE]N[4Pal][Trp(7-Cl)][αMeS][Phe(4-COOH)]Y[Sar][Trp(βS-Me,7-OMe)]C-NH2; thioether N-14) | 0.49 nM | > 1000 nM | 
4 | CCCC[C@@H]1NC(=O)[C@H]2CC[C@H](CC2)NC(=O)[C@H]([C@@H](C)c2c[nH]c3c(OC)cccc23)NC(=O)CN(C)C(=O)[C@H](Cc2ccc(O)cc2)NC(=O)[C@H](Cc2ccc(C(=O)O)cc2)NC(=O)[C@](C)(CO)NC(=O)[C@H](Cc2c[nH]c3c(Cl)cccc23)NC(=O)[C@H](Cc2ccncc2)NC(=O)[C@H](CC(N)=O)NC(=O)[C@H](CCC(=O)O)N(C)C(=O)[C@H](Cc2c[nH]c3ccccc23)NC(=O)[C@H](CO)NC(=O)[C@H](Cc2ccc(CN)cc2)NC1=O [SEQ ID NO. 244] (cyclo([4Pal][Trp(7-Cl)][αMeS][Phe(4-COOH)]Y[Sar][Trp(βS-Me,7-OMe)][Achc(cis-1,4)][Nle][Phe(4-CH2NH2)]SW[NMeE]N)) | 0.96 nM | > 1000 nM | 0.49 nM
5 | CCCC[C@@H]1NC(=O)[C@@H]2CC[C@@H](C2)NC(=O)[C@H]([C@@H](C)c2c[nH]c3c(OC)cccc23)NC(=O)CN(C)C(=O)[C@H](Cc2ccc(C(=O)O)cc2)NC(=O)[C@H](Cc2ccc(C(N)=O)cc2)NC(=O)[C@](C)(CO)NC(=O)[C@H](Cc2c[nH]c3c(Cl)cccc23)NC(=O)[C@H](Cc2ccc(C(=O)O)cc2)NC(=O)[C@H](CC(N)=O)NC(=O)[C@H]2C[C@H](O)CN2C(=O)[C@H](Cc2c[nH]c3ccccc23)NC(=O)[C@@H]2CC[C@@H](O)CN2C(=O)[C@H](Cc2ccncc2)NC1=O [SEQ ID NO. 247] (cyclo([4Pal][Pip(5R-OH)]W[dHyp]N[Phe(4-COOH)][Trp(7-Cl)][αMeS][Phe(4-CONH2)][Phe(4-COOH)][Sar][Trp(βS-Me,7-OMe)][X1][Nle])) | 0.09 nM | > 1000 nM | 
6 | C[C@H]1C(=O)N[C@@H](CC(N)=O)C(=O)N[C@@H](Cc2ccncc2)C(=O)N[C@@H](Cc2c[nH]c3ccccc23)C(=O)N[C@@](C)(CO)C(=O)N[C@@H](Cc2ccc(C(=O)O)cc2)C(=O)N[C@@H](Cc2ccc(O)cc2)C(=O)N(C)CC(=O)N[C@@H](Cc2c[nH]c3ccccc23)C(=O)N[C@@H]2C=C[C@@H](C2)C(=O)N[C@@H](CCc2ccccc2)C(=O)N[C@@H](Cc2ccncc2)C(=O)N[C@@H](CO)C(=O)N[C@@H](Cc2c[nH]c3ccccc23)C(=O)N1C [SEQ ID NO. 248] (cyclo([4Pal]SW[NMeA]N[4Pal]W[αMeS][Phe(4-COOH)]Y[Sar]W[X4][hPhe])) | 1.56 nM | > 1000 nM | 1.45 nM
7 | CCCC[C@@H]1NC(=O)CSC[C@@H](C(N)=O)NC(=O)[C@H]([C@@H](C)c2c[nH]c3c(OC)cccc23)NC(=O)CN(C)C(=O)[C@H](Cc2ccc(O)cc2)NC(=O)[C@H](Cc2ccc(C(=O)O)cc2)NC(=O)[C@](C)(CO)NC(=O)[C@H](Cc2c[nH]c3c(Cl)cccc23)NC(=O)[C@H](Cc2ccncc2)NC(=O)[C@H](CC(N)=O)NC(=O)[C@H](CCC(=O)O)N(C)C(=O)[C@H](Cc2c[nH]c3ncccc23)NC(=O)[C@H](Cc2cscn2)NC(=O)[C@H](Cc2ccncc2)NC1=O [SEQ ID NO. 253] ({CH2CO}-[Nle][4Pal][Ala(4-thiazolyl)][Trp(7-aza)][NMeE]N[4Pal][Trp(7-Cl)][αMeS][Phe(4-COOH)]Y[Sar][Trp(βS-Me,7-OMe)]C-NH2; thioether N-14) | 1.02 nM | > 1000 nM | 0.77 nM
8 | CN1CC(=O)N[C@@H](Cc2c[nH]c3ccccc23)C(=O)N[C@H](C(N)=O)CSCC(=O)N[C@@H](CCCCN)C(=O)N[C@@H](Cc2ccc(O)cc2)C(=O)N[C@@H](CO)C(=O)N[C@@H](Cc2c[nH]c3ccccc23)C(=O)N2CCC[C@@H]2C(=O)N[C@@H](CCCNC(N)=O)C(=O)N[C@@H](Cc2ccncc2)C(=O)N[C@@H](Cc2c[nH]c3ccccc23)C(=O)N[C@@](C)(CO)C(=O)N[C@@H](Cc2ccc(C(=O)O)cc2)C(=O)N[C@@H](Cc2ccc(O)cc2)C1=O [SEQ ID NO. 256] ({CH2CO}-KYSW[dP][Cit][4Pal]W[αMeS][Phe(4-COOH)]Y[Sar]WC-NH2; thioether N-14) |  | > 1000 nM | 1.84 nM
9 | CCCC[C@@H]1NC(=O)CSC[C@@H](C(N)=O)NC(=O)[C@H]([C@@H](C)c2c[nH]c3c(OC)cccc23)NC(=O)CN(C)C(=O)[C@H](Cc2ccc(O)cc2)NC(=O)[C@H](Cc2ccc(C(=O)O)cc2)NC(=O)[C@](C)(CO)NC(=O)[C@H](Cc2c[nH]c3c(Cl)cccc23)NC(=O)[C@H](Cc2ccncc2)NC(=O)[C@H](CC(N)=O)NC(=O)[C@H](CCC(=O)O)N(C)C(=O)[C@H](Cc2c[nH]c3ncccc23)NC(=O)[C@H](CO)NC(=O)[C@H]([C@H](O)c2ccccc2)NC1=O [SEQ ID NO. 259] ({CH2CO}-[Nle][Phe(3R-OH)]S[Trp(7-aza)][NMeE]N[4Pal][Trp(7-Cl)][αMeS][Phe(4-COOH)]Y[Sar][Trp(βS-Me,7-OMe)]C-NH2; thioether N-14) | 0.22 nM | > 1000 nM | 
10 | C[C@H]1C(=O)N[C@@H](CC(N)=O)C(=O)N[C@@H](Cc2ccncc2)C(=O)N[C@@H](Cc2c[nH]c3ccccc23)C(=O)N[C@@](C)(CO)C(=O)N[C@@H](Cc2ccc(C(=O)O)cc2)C(=O)N[C@@H](CCCNC(=N)N)C(=O)N(C)CC(=O)N[C@@H](Cc2c[nH]c3ccccc23)C(=O)N[C@H](C(N)=O)CSCC(=O)N[C@@H](CCc2ccccc2)C(=O)N[C@@H](Cc2ccc(O)cc2)C(=O)N[C@@H](CO)C(=O)N[C@@H](Cc2c[nH]c3ccccc23)C(=O)N1C [SEQ ID NO. 260] ({CH2CO}-[hPhe]YSW[NMeA]N[4Pal]W[αMeS][Phe(4-COOH)]R[Sar]WC-NH2; thioether N-14) |  | > 1000 nM | 10.2 nM
11 | CCCC[C@@H]1NC(=O)CSC[C@@H](C(N)=O)NC(=O)[C@H]([C@@H](C)c2c[nH]c3c(OC)cccc23)NC(=O)CN(C)C(=O)[C@H](Cc2ccc(O)cc2)NC(=O)[C@H](Cc2ccc(C(=O)O)cc2)NC(=O)[C@](C)(CO)NC(=O)[C@H](Cc2c[nH]c3c(Cl)cccc23)NC(=O)[C@H](Cc2ccncc2)NC(=O)[C@H](CC(N)=O)NC(=O)[C@H]2C[C@@H](O)CN2C(=O)[C@H](Cc2c[nH]c3ncccc23)NC(=O)[C@@H]2CNCCN2C(=O)[C@H](Cc2ccncc2)NC1=O [SEQ ID NO. 261] ({CH2CO}-[Nle][4Pal][Pip(4-aza)][Trp(7-aza)][d(cisHyp)]N[4Pal][Trp(7-Cl)][αMeS][Phe(4-COOH)]Y[Sar][Trp(βS-Me,7-OMe)]C-NH2; thioether N-14) | 0.3 nM | > 1000 nM | 0.4 nM
